Test results from patent publication US7714018B2, “Heterocyclic antiviral compounds” (Roche Palo Alto LLC, priority 2004, dated 2010).
Where a name gives a salt, the structure may show the parent alone.

Tests used:
Human CCR5 receptor = target: T1, Human CCR5 receptor (Homo sapiens, UniProt P51681); assay: Human CCR5 receptor-ligand binding assay (125I RANTES displacement); details: 0.1 nM 125I RANTES, CHO-Gα16-hCCR5 cells, RT 2 h
T1 construct: expressed in transfected cells
Text: Human CCR5 receptor (Genebank ID: 29169292) was cloned into mammalian expression vector, pTarget (Promega). The construct was transfected into CHO-Gα16 cells by using Fugene Reagent (Roche). Clones were selected under antibiotic pressure (G418 and Hygromycin) and sorted 4 times with a fluorescence activates cell sorter and a monoclonal antibody specific for CCR5 receptor (BD Biosciences Pharmigen, Mab 2D7, Cat. No. 555993). The clone with highest expression (100,000 copies per cell) was chosen for the binding assays.
Adherent cells in […] tissue culture flask (˜90% confluent) were harvested using 1 mM EDTA in PBS (phosphate-buffered saline) without Ca^2+ and Mg^2+. Cells were washed twice with PBS containing no Ca^2+ and Mg^2+. CHO-Gα16-hCCR5 cells were then resuspended (1×10^6/ml) in ice cold binding buffer (50 mM HEPES, 1 mM CaCl2, 5 mM MgCl2, 0.5% BSA, 0.05% NaN3, pH 7.24), pH 7.4), supplemented with freshly made 0.5% BSA and 0.05% NaN3.
Eighty μl CHO-Gα16-hCCR5 (1×10^6/ml) cells were added to 96 well plates. All dilutions were made in binding buffer (50 mM HEPES, 1 mM CaCl2, 5 mM MgCl2, 0.5% BSA, 0.05% NaN3, pH 7.24).
The plates were incubated on a cell shaker at RT for 2 h with a final concentration of 0.1 nM ^125I RANTES or ^125I MIP-1α or ^125I MIP-1β. The compound dilutions were made in PBS, 1% BSA. Total reaction volume was 100 μl per well. The test compounds were added to the cells prior to the addition of radioligand.
After incubation, the cells were harvested onto GF/C filter plates using Packard cell harvester. Filters were pretreated with 0.3% PEI/0.2% BSA for 30 min. The filter plate was washed rapidly 5 times with 25 mM HEPES, 500 mM NaCl, 1 mM CaCl2 and 5 mM MgCl2 adjusted to pH 7.1. Plates were dried in oven (70° C.) for 20 min, added with 40 μl scintillation fluid and sealed with Packard TopSeal-A. Packard Top Count was used to measure of the radioactivity for 1 min per well.
Total binding was determined with control wells added with radioisotope and buffer and the non-specific binding was determined using an excess cold RANTES to some of the control wells. Specific binding was determined by subtracting the non-specific form total binding. Results are expressed as the percentage of specific ^125I RANTES binding. IC50 values were determined using varying concentrations of the test ligand in triplicates and the data was analyzed using GraphPad Prism (GraphPad, San Diego, Calif.).

T1 sequence (P51681 whole entry): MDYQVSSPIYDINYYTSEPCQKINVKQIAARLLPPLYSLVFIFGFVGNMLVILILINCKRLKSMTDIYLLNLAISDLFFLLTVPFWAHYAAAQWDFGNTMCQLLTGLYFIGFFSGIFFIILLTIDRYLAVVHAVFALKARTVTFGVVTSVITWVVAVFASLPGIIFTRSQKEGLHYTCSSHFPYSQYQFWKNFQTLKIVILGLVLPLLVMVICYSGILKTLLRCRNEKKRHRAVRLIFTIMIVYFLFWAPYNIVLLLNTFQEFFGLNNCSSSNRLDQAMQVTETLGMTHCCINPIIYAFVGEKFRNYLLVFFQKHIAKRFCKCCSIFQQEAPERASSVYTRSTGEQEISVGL

melting point [°C]	IC50 (Human CCR5 receptor) [µM]	SMILES
60.9 to 63.9	–	Cc1cccc(C)c1C(=O)N1C[C@H]2CN(CCC(NC(=O)C3CCCC3)c3ccccc3)C[C@H]2C1 (stereo partly drawn) [Compound I-3, Cyclopentanecarboxylic acid {3-[5-(2,6-dimethyl-benzoyl)-hexahydro-pyrrolo[3,4-c]pyrrol-2-yl]-1-phenyl-propyl}-amide]
48 to 49	0.016	Cc1ncnc(C)c1C(=O)N1CC2CN(CCC(NC(=O)C3CCCC3)c3ccccc3)CC2C1 (stereo not drawn) [Compound I-29, Cyclopentanecarboxylic acid {3-[5-(4,6-dimethyl-pyrimidine-5-carbonyl)-hexahydro-pyrrolo[3,4-c]pyrrol-2-yl]-1-phenyl-propyl}-amide]
68.8 to 73.6	0.037	Cc1ccnc(C)c1C(=O)N1CC2CN(CC[C@H](NC(=O)C3CCCC3)c3ccccc3)CC2C1 (stereo partly drawn) [Compound I-78]
78.9 to 84.9	–	Cc1cccc(C)c1C(=O)N1CC2CN(C(CO)CC(NC(=O)C3CCCC3)c3ccccc3)CC2C1 (stereo not drawn) [Compound I-360, Cyclopentanecarboxylic acid {3-[5-(2,6-dimethyl-benzoyl)-hexahydro-pyrrolo[3,4-c]pyrrol-2-yl]-4-hydroxy-1-phenyl-butyl}-amide]
131.8 to 133.2	–	Cc1ncnc(C)c1C(=O)N1CC2CN(CCC(NC(=O)C3CCC(F)(F)CC3)c3ccccc3)CC2C1 (stereo not drawn) [Compound I-435, 4,4-Difluoro-cyclohexanecarboxylic acid {3-[5-(4,6-dimethyl-pyrimidine-5-carbonyl)-hexahydro-pyrrolo[3,4-c]pyrrol-2-yl]-1-phenyl-propyl}-amide]
71.3 to 72.9	–	Cc1ncnc(C)c1C(=O)N1CC2CN(C(C)CC(NC(=O)C3CCC(F)(F)CC3)c3ccccc3)CC2C1 (stereo not drawn) [Compound I-448, 4,4-Difluoro-cyclohexanecarboxylic acid {3-[5-(4,6-dimethyl-pyrimidine-5-carbonyl)-hexahydro-pyrrolo[3,4-c]pyrrol-2-yl]-1-phenyl-butyl}-amide]
86.4 to 87	0.001	Cc1ncnc(C)c1C(=O)N1CC2CN(C(C)C[C@H](NC(=O)C3CCC(F)(F)CC3)c3ccccc3)CC2C1 (stereo partly drawn) [Compound I-449]
58.1 to 65.2	0.0042	CC(=O)N1CCC(C(=O)N(CCCN2C[C@@H]3CN(C(=O)c4c(C)cccc4C)C[C@@H]3C2)c2ccc(C)c(Cl)c2)CC1 [II-1, 1-Acetyl-piperidine-4-carboxylic acid (3-chloro-4-methyl-phenyl)-{3-[5-(2,6-dimethyl-benzoyl)-hexahydro-pyrrolo[3,4-c]pyrrol-2-yl]-propyl}]
91.8 to 96.9	0.0184	CC(=O)N1CCC(C(=O)N(CCCN2CC3CN(C(=O)c4c(C)ccnc4C)CC3C2)c2ccc(C)c(Cl)c2)CC1 (stereo not drawn) [II-3, 1-Acetyl-piperidine-4-carboxylic acid (3-chloro-4-methyl-phenyl)-{3-[5-(2,4-dimethyl-pyridine-3-carbonyl)-hexahydro-pyrrolo[3,4-c]pyrrol-2-yl]-propyl}-amide]
60.9 to 62.4	–	CC(=O)N1CCC(C(=O)N(CCC(C)N2CC3CN(C(=O)c4c(C)ccnc4C)CC3C2)c2ccc(C)c(Cl)c2)CC1 (stereo not drawn) [II-36, 1-Acetyl-piperidine-4-carboxylic acid (3-chloro-4-methyl-phenyl)-{3-[5-(2,4-dimethyl-pyridine-3-carbonyl)-hexahydro-pyrrolo[3,4-c]pyrrol-2-yl]-butyl}-amide]
60.5 to 62.5	–	Cc1ccc(N(CCCN2C[C@@H]3CN(C(=O)c4c(C)ccnc4C)C[C@@H]3C2)C(=O)Nc2ccc(Cl)cc2)cc1 [II-203, 3-(4-Chloro-phenyl)-1-{3-[(3aS,6aR)-5-(2,4-dimethyl-pyridine-3-carbonyl)-hexahydro-pyrrolo[3,4-c]pyrrol-2-yl]-propyl}-1-p-tolyl-urea]
101.3 to 102.7	0.0015	Cc1ccc(N(CCCN2CC3CN(C(=O)c4c(C)cccc4C)CC3C2)C(=O)C2CCS(=O)(=O)CC2)cc1Cl (stereo not drawn) [II-279]
–	0.102	Cc1ccc(N(CCCN2CC3CN(C(=O)c4c(C)ncnc4C)CC3C2)C(=O)C2CCN(C(=O)C(=O)O)CC2)cc1Cl (stereo not drawn) [II-303, [4-((3-Chloro-4-methyl-phenyl)-{3-[5-(4,6-dimethyl-pyrimidine-5-carbonyl)-hexahydro-pyrrolo[3,4-c]pyrrol-2-yl]-propyl}-carbamoyl)-piperidin-1-yl]-oxo-acetic acid, hydrochloride salt]
–	0.0027	CCOC(=O)c1[nH]c(C)c(S(=O)(=O)N2CC3CN(CCCN(C(=O)C4CCN(C(C)=O)CC4)c4ccc(C)c(Cl)c4)CC3C2)c1C (stereo not drawn) [II-355]

SMILES	melting point [°C]	IC50 (Human CCR5 receptor) [µM]
Cc1nc(OCC(=O)O)nc(C)c1C(=O)N1CC2CN(CC[C@H](NC(=O)C3CCCC3)c3ccccc3)CC2C1 (stereo partly drawn) [Compound I-466]	–	0.011
